The values that follow come from patent publication US20260132164A1, “PNU ANTHRACYCLINE DERIVATIVES AND METHODS OF USE THEREOF” (Merck Sharp & Dohme LLC, priority 2022, published 2026).

For orientation: EC50 means the concentration needed to bring the measured effect to its halfway point.

The test system of one assay is BxPC3. Briefly: CellTiter-Glo 2.0 Cytotoxicity Assay. It counts as cell-based. The note with it: CellTiter-Glo 2.0 luminescence; compound added day 1, read on day 4 or 5; 3000 cells/well. For orientation: In ATP-based viability assays light output follows the ATP content of the culture.
As to `COc1cccc2c1C(=O)c1c(O)c3c(c(O)c1C2=O)C[C@@](O)(C(=O)NCCN(C)C(=O)C1CCNC1)C[C@@H]3O[C@H]1C[C@H]2[C@H](O[C@@H]3[C@@H](OC)OCCN32)[C@H](C)O1` (single isomer, unassigned) [Compound 50], the EC50 turned out to be 20 nM.
Compound `COc1cccc2c1C(=O)c1c(O)c3c(c(O)c1C2=O)C[C@@](O)(C(=O)NC1CNCC1(F)F)C[C@@H]3O[C@H]1C[C@H]2[C@H](O[C@@H]3[C@@H](OC)OCCN32)[C@H](C)O1` (some centres unmarked) [Compound 16] displayed an EC50 of 24 nM.
Turning to `COc1cccc2c1C(=O)c1c(O)c3c(c(O)c1C2=O)C[C@@](O)(C(=O)NC1CNCC1(F)F)C[C@@H]3O[C@H]1C[C@H]2[C@H](O[C@@H]3[C@@H](OC)OCCN32)[C@H](C)O1` (some centres unmarked) [Compound 17], the EC50 came out at 10.7 nM.
`COc1cccc2c1C(=O)c1c(O)c3c(c(O)c1C2=O)C[C@@](O)(C(=O)NC1CCC1N)C[C@@H]3O[C@H]1C[C@H]2[C@H](O[C@@H]3[C@@H](OC)OCCN32)[C@H](C)O1` (some centres unmarked) [Compound 19] gave an EC50 of 4 nM.
`COc1cccc2c1C(=O)c1c(O)c3c(c(O)c1C2=O)C[C@@](O)(C(=O)NC1CCC1N)C[C@@H]3O[C@H]1C[C@H]2[C@H](O[C@@H]3[C@@H](OC)OCCN32)[C@H](C)O1` (some centres unmarked) [Compound 20] registered an EC50 of 8.5 nM.

Still in this assay, the particulars now being: Homo sapiens, BXPC-3, CellTiter-Glo 2.0 luminescence; compound added day 1, read on day 4 or 5; 3000 cells/well.
For the compound `COc1cccc2c1C(=O)c1c(O)c3c(c(O)c1C2=O)C[C@@](O)(C(=O)NCCN(C)C(=O)C1CCNC1)C[C@@H]3O[C@H]1C[C@H]2[C@H](O[C@@H]3[C@@H](OC)OCCN32)[C@H](C)O1` (single isomer, unassigned) [Compound 49], the EC50 stood at 31 nM.
The same measure, in the same setting: next, `COc1cccc2c1C(=O)c1c(O)c3c(c(O)c1C2=O)C[C@@](O)(C(=O)NCc1cccc(N)c1)C[C@@H]3O[C@H]1C[C@H]2[C@H](O[C@@H]3[C@@H](OC)OCCN32)[C@H](C)O1` [Compound 1, (2S,4S)—N-(3-aminobenzyl)-2,5,12-trihydroxy-7-methoxy-4-(((1S,3R,4aS,9S,9aR,10aS)-9-methoxy-1-methyloctahydro-1H-pyrano[4′,3′:4,5]oxazolo[2,3-c][1,4]oxazin-3-yl)oxy)-6,11-dioxo-1,2,3,4,6,11-hexahydrotetracene-2-carboxamide]: 0.08 nM; `COc1cccc2c1C(=O)c1c(O)c3c(c(O)c1C2=O)C[C@@](O)(C(=O)N1CC(CN)C1)C[C@@H]3O[C@H]1C[C@H]2[C@H](O[C@@H]3[C@@H](OC)OCCN32)[C@H](C)O1` [Compound 2]: 22 nM; `COc1cccc2c1C(=O)c1c(O)c3c(c(O)c1C2=O)C[C@@](O)(C(=O)NCCNC(=O)[C@@H]1CCCN1)C[C@@H]3O[C@H]1C[C@H]2[C@H](O[C@@H]3[C@@H](OC)OCCN32)[C@H](C)O1` [Compound 3]: 13 nM.
In the case of `COc1cccc2c1C(=O)c1c(O)c3c(c(O)c1C2=O)C[C@@](O)(C(=O)NCCNC(=O)CN)C[C@@H]3O[C@H]1C[C@H]2[C@H](O[C@@H]3[C@@H](OC)OCCN32)[C@H](C)O1` [Compound 4], the EC50 amounted to 13 nM. This counts as double-digit nanomolar.
In turn, `COc1cccc2c1C(=O)c1c(O)c3c(c(O)c1C2=O)C[C@@](O)(C(=O)NCCNC(=O)NN)C[C@@H]3O[C@H]1C[C@H]2[C@H](O[C@@H]3[C@@H](OC)OCCN32)[C@H](C)O1` [Compound 5] gave an EC50 of 2.8 nM. Against the preceding compound, the EC50 is about 4.6-fold lower.
`COc1cccc2c1C(=O)c1c(O)c3c(c(O)c1C2=O)C[C@@](O)(C(=O)N1CC(CNC(=O)[C@H](C)N)C1)C[C@@H]3O[C@H]1C[C@H]2[C@H](O[C@@H]3[C@@H](OC)OCCN32)[C@H](C)O1` [Compound 6] gave a 50% effective concentration (EC50) of 8.6 nM.
On the same count and under the same terms, with `COc1cccc2c1C(=O)c1c(O)c3c(c(O)c1C2=O)C[C@@](O)(C(=O)NCCNC(=O)[C@H](C)N)C[C@@H]3O[C@H]1C[C@H]2[C@H](O[C@@H]3[C@@H](OC)OCCN32)[C@H](C)O1` [Compound 7] the figure was 13 nM; with `COc1cccc2c1C(=O)c1c(O)c3c(c(O)c1C2=O)C[C@@](O)(C(=O)NCCCNCCCNC(=O)CN)C[C@@H]3O[C@H]1C[C@H]2[C@H](O[C@@H]3[C@@H](OC)OCCN32)[C@H](C)O1` [Compound 8], 48 nM.
On the same count and under the same terms, next, `CNCCNC(=O)[C@]1(O)Cc2c(O)c3c(c(O)c2[C@@H](O[C@H]2C[C@H]4[C@H](O[C@@H]5[C@@H](OC)OCCN54)[C@H](C)O2)C1)C(=O)c1c(OC)cccc1C3=O` [Compound 9]: 17 nM; `COc1cccc2c1C(=O)c1c(O)c3c(c(O)c1C2=O)C[C@@](O)(C(=O)N1CC(CN2CC(N)C2)C1)C[C@@H]3O[C@H]1C[C@H]2[C@H](O[C@@H]3[C@@H](OC)OCCN32)[C@H](C)O1` [Compound 10]: 124 nM; `COc1cccc2c1C(=O)c1c(O)c3c(c(O)c1C2=O)C[C@@](O)(C(=O)N1CC(CN2CC(NC(=O)[C@H](C)N)C2)C1)C[C@@H]3O[C@H]1C[C@H]2[C@H](O[C@@H]3[C@@H](OC)OCCN32)[C@H](C)O1` [Compound 11]: 822 nM.
The compound `COc1cccc2c1C(=O)c1c(O)c3c(c(O)c1C2=O)C[C@@](O)(C(=O)NC1CCNC1)C[C@@H]3O[C@H]1C[C@H]2[C@H](O[C@@H]3[C@@H](OC)OCCN32)[C@H](C)O1` (some centres unmarked) [Compound 12] displayed an EC50 of 7.7 nM.
Compound `COc1cccc2c1C(=O)c1c(O)c3c(c(O)c1C2=O)C[C@@](O)(C(=O)N(C)CCN)C[C@@H]3O[C@H]1C[C@H]2[C@H](O[C@@H]3[C@@H](OC)OCCN32)[C@H](C)O1` [Compound 13] yielded an EC50 of 5.4 nM. This EC50 and that of the compound before are within 1.5-fold of each other.
On the same count and under the same terms, next, `COc1cccc2c1C(=O)c1c(O)c3c(c(O)c1C2=O)C[C@@](O)(C(=O)NCCCN(C)CCCN)C[C@@H]3O[C@H]1C[C@H]2[C@H](O[C@@H]3[C@@H](OC)OCCN32)[C@H](C)O1` [Compound 14]: 11 nM.
Same read-out and setting: with `COc1cccc2c1C(=O)c1c(O)c3c(c(O)c1C2=O)C[C@@](O)(C(=O)NCCN1CCC(N)C1=O)C[C@@H]3O[C@H]1C[C@H]2[C@H](O[C@@H]3[C@@H](OC)OCCN32)[C@H](C)O1` (some centres unmarked) [Compound 15] the figure was 64 nM; with `COc1cccc2c1C(=O)c1c(O)c3c(c(O)c1C2=O)C[C@@](O)(C(=O)NCCCN)C[C@@H]3O[C@H]1C[C@H]2[C@H](O[C@@H]3[C@@H](OC)OCCN32)[C@H](C)O1` [Compound 18], 8.5 nM; with `COc1cccc2c1C(=O)c1c(O)c3c(c(O)c1C2=O)C[C@@](O)(C(=O)NCc1ccc(N)cc1)C[C@@H]3O[C@H]1C[C@H]2[C@H](O[C@@H]3[C@@H](OC)OCCN32)[C@H](C)O1` [Compound 23], 0.06 nM.
`COc1cccc2c1C(=O)c1c(O)c3c(c(O)c1C2=O)C[C@@](O)(C(=O)N1CC(N)C1)C[C@@H]3O[C@H]1C[C@H]2[C@H](O[C@@H]3[C@@H](OC)OCCN32)[C@H](C)O1` [Compound 24] showed an EC50 of 8.3 nM.
`COc1cccc2c1C(=O)c1c(O)c3c(c(O)c1C2=O)C[C@@](O)(C(=O)N[C@H]1CCCC[C@@H]1N)C[C@@H]3O[C@H]1C[C@H]2[C@H](O[C@@H]3[C@@H](OC)OCCN32)[C@H](C)O1` [Compound 25] yielded an EC50 of 10.5 nM.
Regarding `COc1cccc2c1C(=O)c1c(O)c3c(c(O)c1C2=O)C[C@@](O)(C(=O)N[C@@H]1CCCC[C@H]1N)C[C@@H]3O[C@H]1C[C@H]2[C@H](O[C@@H]3[C@@H](OC)OCCN32)[C@H](C)O1` [Compound 26], the EC50 was found to be 2.7 nM.
In turn, `COc1cccc2c1C(=O)c1c(O)c3c(c(O)c1C2=O)C[C@@](O)(C(=O)NC1CNC1)C[C@@H]3O[C@H]1C[C@H]2[C@H](O[C@@H]3[C@@H](OC)OCCN32)[C@H](C)O1` [Compound 27] gave an EC50 of 39 nM.
For `COc1cccc2c1C(=O)c1c(O)c3c(c(O)c1C2=O)C[C@@](O)(C(=O)N1CC2(CCNC2)C1)C[C@@H]3O[C@H]1C[C@H]2[C@H](O[C@@H]3[C@@H](OC)OCCN32)[C@H](C)O1` [Compound 28], the EC50 is 478 nM.
Compound `COc1cccc2c1C(=O)c1c(O)c3c(c(O)c1C2=O)C[C@@](O)(C(=O)N1CCC2(CNC2)C1)C[C@@H]3O[C@H]1C[C@H]2[C@H](O[C@@H]3[C@@H](OC)OCCN32)[C@H](C)O1` [Compound 29] displayed an EC50 of 90 nM.
The same measure, in the same setting: with `COc1cccc2c1C(=O)c1c(O)c3c(c(O)c1C2=O)C[C@@](O)(C(=O)N1CC2(CNC2)C1)C[C@@H]3O[C@H]1C[C@H]2[C@H](O[C@@H]3[C@@H](OC)OCCN32)[C@H](C)O1` [Compound 30] the figure was 14 nM; with `COc1cccc2c1C(=O)c1c(O)c3c(c(O)c1C2=O)C[C@@](O)(C(=O)NC[C@H]1C[C@@H](N)C1)C[C@@H]3O[C@H]1C[C@H]2[C@H](O[C@@H]3[C@@H](OC)OCCN32)[C@H](C)O1` [Compound 31], 2.6 nM; with `COc1cccc2c1C(=O)c1c(O)c3c(c(O)c1C2=O)C[C@@](O)(C(=O)NCc1ccc(N)cn1)C[C@@H]3O[C@H]1C[C@H]2[C@H](O[C@@H]3[C@@H](OC)OCCN32)[C@H](C)O1` [Compound 32], 0.07 nM.
On the same count and under the same terms, next, `COc1cccc2c1C(=O)c1c(O)c3c(c(O)c1C2=O)C[C@@](O)(C(=O)N[C@@H]1CC[C@H](N)C1)C[C@@H]3O[C@H]1C[C@H]2[C@H](O[C@@H]3[C@@H](OC)OCCN32)[C@H](C)O1` [Compound 33]: 9.2 nM; `COc1cccc2c1C(=O)c1c(O)c3c(c(O)c1C2=O)C[C@@](O)(C(=O)N[C@H]1CC[C@@H](N)C1)C[C@@H]3O[C@H]1C[C@H]2[C@H](O[C@@H]3[C@@H](OC)OCCN32)[C@H](C)O1` [Compound 34]: 19 nM; `COc1cccc2c1C(=O)c1c(O)c3c(c(O)c1C2=O)C[C@@](O)(C(=O)N[C@H]1[C@@H]2CNC[C@@H]21)C[C@@H]3O[C@H]1C[C@H]2[C@H](O[C@@H]3[C@@H](OC)OCCN32)[C@H](C)O1` [Compound 35]: 0.97 nM.
On the same count and under the same terms, with `COc1cccc2c1C(=O)c1c(O)c3c(c(O)c1C2=O)C[C@@](O)(C(=O)NCC1(F)CNC1)C[C@@H]3O[C@H]1C[C@H]2[C@H](O[C@@H]3[C@@H](OC)OCCN32)[C@H](C)O1` [Compound 36] the figure was 0.42 nM; with `COc1cccc2c1C(=O)c1c(O)c3c(c(O)c1C2=O)C[C@@](O)(C(=O)NC[C@H]1CCNC1)C[C@@H]3O[C@H]1C[C@H]2[C@H](O[C@@H]3[C@@H](OC)OCCN32)[C@H](C)O1` [Compound 37], 8 nM.
The compound `CNCCCNC(=O)[C@]1(O)Cc2c(O)c3c(c(O)c2[C@@H](O[C@H]2C[C@H]4[C@H](O[C@@H]5[C@@H](OC)OCCN54)[C@H](C)O2)C1)C(=O)c1c(OC)cccc1C3=O` [Compound 38] had an EC50 of 9.1 nM. This EC50 and that of the compound before are within 1.5-fold of each other.
